From patent US11964938B2, “3-phenyl-4-hexynoic acid derivatives as GPR40 agonists” (CELON PHARMA S.A., priority 2018, dated 2024)
Structures can show the parent of a compound that is named as a salt.

Key:
[1] = system: diabetes STZ-treated mice; test: Von Frey test on diabetes STZ-treated mice (tactile allodynia); assay type: in vivo, mouse; conditions: 60 minutes after administration, mean of group
Protocol: Experiment B5: Von Frey Test on Diabetes STZ-Treated Mice.
Tactile allodynia was assessed by electronic von Frey apparatus (Bioseb) equipped with a flexible filament. Reaction to stimuli was assessed using growing applied pressure (from 0 to 10 g) on a plantar side of the hind foot of mice. Pregabalin was a control, as reference healthy mice with preserved normal response to the stimuli were used. In the day of the experiment, mice were placed separately in cages with a wire mesh bottom for 1 h for habituation to experimental conditions. After habituation period, each mouse was treated 3 times alternately, with 30 s intervals between each measurement, to obtain starting values (before administration of the compound) of pain sensitivity. […] The results are presented in Table 7 as mean value for all mice in a given group (n=7-10).

human GPR40 receptor = molecular target: T1, human GPR40 receptor (Homo sapiens, UniProt O14842); test: Analysis of receptor activation - calcium ions concentration measurement (aequorin luminescence); assay type: cell-based; conditions: enhancement or decrease of activity in relation to reference TAK-875, from EC50 values
T1 construct: host or cells: CHO-K1 (co-expressing aequorin)
T1 sequence (O14842 whole entry): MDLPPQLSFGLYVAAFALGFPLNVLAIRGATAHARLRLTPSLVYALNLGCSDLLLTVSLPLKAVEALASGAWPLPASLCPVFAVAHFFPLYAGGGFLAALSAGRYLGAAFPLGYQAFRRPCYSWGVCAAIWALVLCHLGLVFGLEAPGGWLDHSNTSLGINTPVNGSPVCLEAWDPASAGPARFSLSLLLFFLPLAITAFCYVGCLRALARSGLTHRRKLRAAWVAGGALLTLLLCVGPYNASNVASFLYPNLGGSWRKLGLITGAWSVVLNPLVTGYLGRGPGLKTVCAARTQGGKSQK
From the text: Experiment B1: Analysis of Receptor Activation—Calcium Ions Concentration Measurement.
As a result of the measurement, luminescence change in the time curve were obtained, the integration of which allowed to calculate the relative amount of calcium ions released to cytosol. […] Curves plotted from obtained results allowed to determine EC50 values.

Q: For `CC#C[C@@H](CC(=O)O)c1ccc(OCC(C)=C(C)C)cc1` [Example S1, (3S)-3-{4-[(2,3-dimethylbut-2-en-1-yl)oxy]phenyl}hex-4-ynoic acid calcium salt], which “Applied pressure causing the response, sick animal (neuropathic) after compound administration” value (“Applied pressure causing the response” below) ([1]; 3 mg/kg p.o.) is on record?
A: 1.85 g

Q: And the “Applied pressure causing the response” value ([1]; 10 mg/kg p.o.)?
A: 2.34 g

Q: And the “Applied pressure causing the response” value ([1]; 30 mg/kg p.o.)?
A: 3.36 g

Q: For `Cc1cc(OCCCS(C)(=O)=O)cc(C)c1-c1cccc(COc2ccc3c(c2)OC[C@H]3CC(=O)O)c1` [Example R1, 2[(3S)-6-({3-[4-(3-methanesulfonylpropoxy)-2,6-dimethylphenyl]-phenyl}methoxy)-2,3-dihydro-1-benzofuran-3-yl]acetic acid, reference compound], which “% PTAK-875” value (human GPR40 receptor) is on record?
A: B (81-120% PTAK-875)
